How the values were obtained:
Experiment in all cases: relative viability (nuclei count vs DMSO), 5 days (fraction); higher = more cells survive
[1] = compound: CCc1c2c(nc3ccc(OC(=O)N4CCC(N5CCCCC5)CC4)cc13)-c1cc3c(c(=O)n1C2)COC(=O)[C@]3(O)CC [Irinotecan] + CCNC(=O)c1noc(-c2cc(C(C)C)c(O)cc2O)c1-c1ccc(CN2CCOCC2)cc1 [Luminespib] (partner 0.01 µM)
In short: (§1)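 Lung cancer cell lines were pin-tool dosed in 1536-well plates on the day after seeding, with either a lone drug or a fixed anchor-drug dose plus five library-drug doses (not always all listed) in √10 steps. Nuclei were counted on 4× images after 5 days. Relative viability is the ratio of treated-well to vehicle-well nuclei counts, with each value a median of duplicate plates.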

[2] = compound: CCc1c2c(nc3ccc(OC(=O)N4CCC(N5CCCCC5)CC4)cc13)-c1cc3c(c(=O)n1C2)COC(=O)[C@]3(O)CC [Irinotecan] + CC(C)C[C@H](NC(=O)[C@H](Cc1ccccc1)NC(=O)c1cnccn1)B(O)O [Bortezomib] (partner 0.002 µM)
In short: as §1

[3] = compound: Cn1cc(-c2cnc3ccc4ccc(CS(=O)(=O)NCc5ccccn5)cc4c(=O)c3c2)cn1 [MK-8033] + CCNC(=O)c1noc(-c2cc(C(C)C)c(O)cc2O)c1-c1ccc(CN2CCOCC2)cc1 [Luminespib] (partner 0.01 µM)
In short: as §1

[4] = compound: CC[C@@H](C)CNCC(=O)N1CCC2=C([C@@H]1COC3=CC=CC(=C3)C)C=CS2 [RU-SKI 43] + Nc1nc2[nH]cc(CCc3ccc(C(=O)N[C@@H](CCC(=O)O)C(=O)O)cc3)c2c(=O)[nH]1 [Pemetrexed] (partner 0.2 µM)
In short: as §1

Cell Line	relative viability ([1]; first compound 2 µM)	relative viability ([1]; first compound 6.325 µM)	relative viability ([1]; first compound 20 µM)	relative viability ([2]; first compound 2 µM)	relative viability ([2]; first compound 6.325 µM)	relative viability ([2]; first compound 20 µM)	relative viability ([3]; first compound 0.02 µM)	relative viability ([3]; first compound 0.06325 µM)	relative viability ([3]; first compound 0.2 µM)	relative viability ([3]; first compound 0.6325 µM)	relative viability ([3]; first compound 2 µM)	relative viability ([4]; first compound 0.1 µM)	relative viability ([4]; first compound 0.3162 µM)	relative viability ([4]; first compound 1 µM)	relative viability ([4]; first compound 3.162 µM)	relative viability ([4]; first compound 10 µM)	relative viability ([1]; first compound 0.6325 µM)	relative viability ([2]; first compound 0.6325 µM)
201T	0.547	0.313	0.342	1.12	1.06	0.942	0.986	1.07	0.957	1.06	1.03	0.374	0.311	0.307	0.358	0.321		
A-427	0.574	0.306	0.166	0.427	0.198	0.187	0.85	0.85	0.83	0.88	0.91	1.02	0.948	1.15	1.04	0.995		
ABC-1	0.528	0.352	0.269	0.276	0.324	0.103	0.544	0.545		0.602	0.473							
BEN	0.374	0.176	0.294	0.561	0.218	0.296	0.382	0.419	0.331	0.295	0.455	0.941	0.682	0.997	0.665	0.825	0.231	0.547
CAL-12T	0.695	0.2	0.253	0.978	0.491	0.324	0.263	0.305	0.518	0.319	0.53	1.16	1.36	1.39	1.2	1.22		0.944
COR-L23	0.36	0.223	0.165	0.396	0.211	0.113	0.696	0.595	0.722	0.661	0.606	0.203	0.202	0.205	0.22	0.189	0.235	0.506
COR-L 105	0.677	0.421	0.411	0.798	0.627	0.291	0.552	0.79	0.774	0.616	0.677	1.11	1.12	1.17	1.04	1.03	0.578	0.676
Calu-6				0.551	0.296	0.114												0.816
ChaGo-K-1	0.332	0.23	0.282	1.05	0.46	0.379	0.679	0.696	0.562	0.636	0.516	0.268	0.299	0.249	0.284	0.265	0.309	
EBC-1				0.437	0.474	0.143												0.421
EKVX	0.667	0.379	0.154	0.772	0.394	0.193	0.888	0.905	0.814	0.889	0.842	0.419	0.344	0.417	0.407	0.393	0.81	1.08
EMC-BAC-2	0.407	0.347	0.375	0.717	0.242	0.218	1.2	1.07	1.12	1.16	1.12	0.441	0.401	0.455	0.428	0.443	0.681	0.952
EPLC-272H	0.368	0.287	0.281	0.635	0.317	0.217	0.214	0.339	0.282	0.218	0.475	0.349	0.405	0.243	0.317	0.238	0.203	0.744
H3255	0.707	0.385	0.448	0.529	0.299	0.392	0.864	0.737	0.834	0.896	0.916	0.554	0.61	0.571	0.555	0.595	0.435	0.432
HARA	0.29	0.147	0.111	0.291	0.177	0.156	0.675	0.621	0.681	1.03	0.557	0.265	0.264	0.259	0.277	0.254	0.0995	0.955
HCC-15	0.234	0.121	0.126	0.623	0.374	0.176	0.281	0.397	0.263	0.253	0.307	0.215	0.229	0.241	0.217	0.2		0.603
HCC-44	0.456	0.215	0.225	0.752	0.229	0.351	1.06	1.02	1.01	1.3	1.05	0.624	0.652	0.639	0.721	0.69		0.74

From the supplement of paper PMC10307832
